Reference: patent US20250084084A1, “Crystalline form of (2R)-2-(5-fluoro-2-methoxypyridin-4-yl)-1-[(2S)-7-methyl-6-(pyrimidin-2-yl)-3,4-dihydro-1H-spiro[1,8-naphthyridine-2,3-pyrrolidin]-1-yl]propan-1-one” (Pfizer Inc., priority 2020, published 2025)

target: α-melanocyte-stimulating hormone receptor (hMC4R) (Homo sapiens (Human), UniProt P32245); assay: In vitro binding affinity assay using hMC4R (radioligand competition binding, [125I]-(Nle4, D-Phe7)-α-MSH); conditions: geometric mean, read-out: Ki (nM) geometric
Protocol: The binding affinity of test compounds at the α-melanocyte-stimulating hormone receptor (hMC4R) was assessed using a radioligand competition binding assay. Recombinant Chinese hamster ovaries (CHO) cells stably expressing hMC4R (PerkinElmer #ES-191-C) were used for competitive binding. hMC4R membranes were grown in Dulbecco's Modified Essential Medium and Ham's F-12 Medium (DMEM/F12), 10% heat inactivated fetal bovine serum (FBS), 0.4 mg/mL Geneticin and 2 mM L-glutamine. Cell membranes were bulked and frozen until the assay was performed.
Compounds were solubilized in 100% dimethyl sulfoxide (DMSO) to a concentration of 30 mM. A 10-point intermediate dilution series using half log dilutions was created in 100% DMSO with a top concentration of 0.03 mM. The serially diluted compounds were spotted as 1 μL/well, in 96-well Costar 3363 plates. The final compound range in the assay was 300 nM to 0.01 nM with a final DMSO concentration of 1%. Control wells, containing 1 μL of 2 mM ([…]) alpha-melanocyte stimulating hormone (α-MSH-Tocris #2584) was added to the non-specific binding wells and 1 μL 100% DMSO for the total binding control wells. […] The exact concentration of radioligand used for each experiment was determined by liquid scintillation counting and adjusted if necessary.
Frozen hMC4R cell membranes were thawed and Dounce homogenized. Homogenates were resuspended in assay buffer to a concentration of 2 μg per well. […] The plates were incubated for 2 hours at room temperature. Assay samples were then rapidly filtered through Unifilter-96 GF/B PEI coated filter plates using a filter plate harvester (PerkinElmer) and rinsed with ice-cold wash buffer [25 mM (4-(2-hydroxyethyl)-1-piperazineethanesulfonic acid (HEPES), 1 mM MgCl2, 2.5 mM CaCl2, and 500 mM NaCl]. Filter plates were dried overnight at room temperature. Plates were then bottom-sealed prior to the addition of 50 μL/well Ultima Gold XR scintillation fluid (PerkinElmer 6013111). Plates were then top-sealed, incubated for 60 minutes at room temperature and then the amount of radioactivity present was determined by liquid scintillation counting on a Microbeta Trilux (PerkinElmer #2450-0060).
The raw data (expressed as counts per minute) were analyzed using ActivityBase (IDBS Data Management Software). […] Equilibrium dissociation constant for inhibitor of ligand and receptor interaction (Ki) values were then calculated from the IC50 values using the Cheng-Prusoff equation: Ki=IC50/(1+([L]/Kd)), where [L] is the concentration of the radioligand used in the experiment and Kd is the affinity of the radioligand (determined in separate saturation experiments).

Chain of α-melanocyte-stimulating hormone receptor (hMC4R) (P32245 whole entry): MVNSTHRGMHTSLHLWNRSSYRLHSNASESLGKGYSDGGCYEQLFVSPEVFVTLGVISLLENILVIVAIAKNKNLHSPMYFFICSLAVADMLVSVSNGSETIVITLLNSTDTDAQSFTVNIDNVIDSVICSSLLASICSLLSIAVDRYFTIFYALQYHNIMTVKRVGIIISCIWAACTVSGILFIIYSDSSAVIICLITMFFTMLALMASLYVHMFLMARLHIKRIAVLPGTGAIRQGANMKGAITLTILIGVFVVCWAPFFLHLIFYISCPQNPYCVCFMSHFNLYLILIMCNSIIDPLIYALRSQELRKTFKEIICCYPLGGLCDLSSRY

Ki | Structure (SMILES)
0.9 nM | COc1cc([C@@H](C)C(=O)N2CC[C@@]3(CCc4cc(-c5cn(C(F)F)c(C)n5)c(C)nc4N3)C2)c(F)cn1 [Example 138, (2R)-1-{(2S)-6-[1-(difluoromethyl)-2-methyl-1H-imidazol-4-yl]-7-methyl-3,4-dihydro-1H-spiro[1,8-naphthyridine-2,3′-pyrrolidin]-1′-yl}-2-(5-fluoro-2-methoxypyridin-4-yl)propan-1-one]
13 nM | COc1cc([C@@H](C)C(=O)N2CC[C@@]3(CCc4cc(-c5ccc(F)cn5)c(C)nc4N3)C2)c(F)cn1 [Example 139, (2R)-2-(5-fluoro-2-methoxypyridin-4-yl)-1-[(2S)-6-(5-fluoropyridin-2-yl)-7-methyl-3,4-dihydro-1H-spiro[1,8-naphthyridine-2,3′-pyrrolidin]-1′-yl]propan-1-one]
6.3 nM | COc1cc([C@@H](C)C(=O)N2CC[C@@]3(CCc4cc(-c5ccccn5)c(C)nc4N3)C2)c(F)cn1 [Example 140, (2R)-2-(5-fluoro-2-methoxypyridin-4-yl)-1-[(2S)-7-methyl-6-(pyridin-2-yl)-3,4-dihydro-1H-spiro[1,8-naphthyridine-2,3′-pyrrolidin]-1′-yl]propan-1-one]
2 nM | COc1cc([C@@H](C)C(=O)N2CC[C@@]3(CCc4cc(-c5ncc(Cl)cn5)c(C)nc4N3)C2)c(F)cn1 [Example 144, (2R)-1-[(2S)-6-(5-chloropyrimidin-2-yl)-7-methyl-3,4-dihydro-1H-spiro[1,8-naphthyridine-2,3′-pyrrolidin]-1′-yl]-2-(5-fluoro-2-methoxypyridin-4-yl)propan-1-one]
0.62 nM | COc1cc([C@@H](C)C(=O)N2CC[C@@]3(CCc4cc(-c5nc6n(n5)CCC6(F)F)c(C)nc4N3)C2)c(F)cn1 [Example 147, (2R)-1-[(2S)-6-(7,7-difluoro-6,7-dihydro-5H-pyrrolo[12-b][1,2,4]triazol-2-yl)-7-methyl-3,4-dihydro-1H-spiro[1,8-naphthyridine-2,3′-pyrrolidin]-1′-yl]-2-(5-fluoro-2-methoxypyridin-4-yl)propan-1-one]
3.9 nM | COc1cc([C@@H](C)C(=O)N2CC[C@@]3(CCc4cc(-c5cnsc5)c(C)nc4N3)C2)c(F)cn1 [Example 150, (2R)-2-(5-fluoro-2-methoxypyridin-4-yl)-1-[(2S)-7-methyl-6-(1,2-thiazol-4-yl)-3,4-dihydro-1H-spiro[1,8-naphthyridine-2,3′-pyrrolidin]-1′-yl]propan-1-one]
23 nM | COc1cc([C@@H](C)C(=O)N2CC[C@@]3(CCc4cc(-c5cnc(C)nc5)c(C)nc4N3)C2)c(F)cn1 [Example 151, (2R)-2-(5-fluoro-2-methoxypyridin-4-yl)-1-[(2S)-7-methyl-6-(2-methylpyrimidin-5-yl)-3,4-dihydro-1H-spiro[1,8-naphthyridine-2,3′-pyrrolidin]-1′-yl]propan-1-one]
3.3 nM | COc1cc([C@@H](C)C(=O)N2CC[C@@]3(CCc4cc(-c5cnc(C)s5)c(C)nc4N3)C2)c(F)cn1 [Example 153, (2R)-2-(5-fluoro-2-methoxypyridin-4-yl)-1-[(2S)-7-methyl-6-(2-methyl-1,3-thiazol-5-yl)-3,4-dihydro-1H-spiro[1,8-naphthyridine-2,3′-pyrrolidin]-1′-yl]propan-1-one]
0.72 nM | COc1cc([C@@H](C)C(=O)N2CC[C@@]3(CCc4cc(-c5cnn6cccnc56)c(C)nc4N3)C2)c(F)cn1 [Example 154, (2R)-2-(5-fluoro-2-methoxypyridin-4-yl)-1-[(2S)-7-methyl-6-(pyrazolo[1,5-a]pyrimidin-3-yl)-3,4-dihydro-1H-spiro[1,8-naphthyridine-2,3′-pyrrolidin]-1′-yl]propan-1-one]
5.9 nM | COc1cc([C@@H](C)C(=O)N2CC[C@@]3(CCc4cc(-c5cncc(C)n5)c(C)nc4N3)C2)c(F)cn1 [Example 156, (2R)-2-(5-fluoro-2-methoxypyridin-4-yl)-1-[(2S)-7-methyl-6-(6-methylpyrazin-2-yl)-3,4-dihydro-1H-spiro[1,8-naphthyridine-2,3′-pyrrolidin]-1′-yl]propan-1-one]
3.2 nM | COc1cc([C@@H](C)C(=O)N2CC[C@@]3(CCc4cc(-c5cnc(C)cn5)c(C)nc4N3)C2)c(F)cn1 [Example 158, (2R)-2-(5-fluoro-2-methoxypyridin-4-yl)-1-[(2S)-7-methyl-6-(5-methylpyrazin-2-yl)-3,4-dihydro-1H-spiro[1,8-naphthyridine-2,3′-pyrrolidin]-1′-yl]propan-1-one]
200 nM | COc1cc([C@@H](C)C(=O)N2CC[C@@]3(CCc4cc(-c5cc6onc(C)c6cc5C)c(C)nc4N3)C2)c(F)cn1 [Example 160, (2R)-1-[(2S)-6-(3,5-dimethyl-1,2-benzoxazol-6-yl)-7-methyl-3,4-dihydro-1H-spiro[1,8-naphthyridine-2,3′-pyrrolidin]-1′-yl]-2-(5-fluoro-2-methoxypyridin-4-yl)propan-1-one]

More lines, now with the values behind:

Structure (SMILES) | Ki
COc1cc([C@@H](C)C(=O)N2CC[C@@]3(CCc4cc(C5CCOCC5)c(C)nc4N3)C2)c(F)cn1 [Example 131, (2R)-2-(5-fluoro-2-methoxypyridin-4-yl)-1-[(2S)-7-methyl-6-(oxan-4-yl)-3,4-dihydro-1H-spiro[1,8-naphthyridine-2,3′-pyrrolidin]-1′-yl]propan-1-one] | 5.8 nM
COc1cc([C@@H](C)C(=O)N2CC[C@@]3(CCc4cc(-c5ccnnc5)c(C)nc4N3)C2)c(F)cn1 [Example 141, (2R)-2-(5-fluoro-2-methoxypyridin-4-yl)-1-[(2S)-7-methyl-6-(pyridazin-4-yl)-3,4-dihydro-1H-spiro[1,8-naphthyridine-2,3′-pyrrolidin]-1′-yl]propan-1-one] | 14 nM
COc1cc([C@@H](C)C(=O)N2CC[C@@]3(CCc4cc(-c5nccc(C(F)(F)F)n5)c(C)nc4N3)C2)c(F)cn1 [Example 143, (2R)-2-(5-fluoro-2-methoxypyridin-4-yl)-1-{(2S)-7-methyl-6-[4-(trifluoromethyl)pyrimidin-2-yl]-3,4-dihydro-1H-spiro[1,8-naphthyridine-2,3′-pyrrolidin]-1′-yl}propan-1-one] | 1.3 nM
COc1cc([C@@H](C)C(=O)N2CC[C@@]3(CCc4cc(-c5ncc(C(F)(F)F)cn5)c(C)nc4N3)C2)c(F)cn1 [Example 145, (2R)-2-(5-fluoro-2-methoxypyridin-4-yl)-1-{(2S)-7-methyl-6-[5-(trifluoromethyl)pyrimidin-2-yl]-3,4-dihydro-1H-spiro[1,8-naphthyridine-2,3′-pyrrolidin]-1′-yl}propan-1-one] | 8.7 nM
COc1cc([C@@H](C)C(=O)N2CC[C@@]3(CCc4cc(-c5ncc(F)cn5)c(C)nc4N3)C2)c(F)cn1 [Example 146, (2R)-2-(5-fluoro-2-methoxypyridin-4-yl)-1-[(2S)-6-(5-fluoropyrimidin-2-yl)-7-methyl-3,4-dihydro-1H-spiro[1,8-naphthyridine-2,3′-pyrrolidin]-1′-yl]propan-1-one] | 1.2 nM
COc1cc([C@@H](C)C(=O)N2CC[C@@]3(CCc4cc(-c5cccc(-c6nnc(C)o6)n5)c(C)nc4N3)C2)c(F)cn1 [Example 152, (2R)-2-(5-fluoro-2-methoxypyridin-4-yl)-1-{(2S)-7-methyl-6-[6-(5-methyl-1,3,4-oxadiazol-2-yl)pyridin-2-yl]-3,4-dihydro-1H-spiro[1,8-naphthyridine-2,3′-pyrrolidin]-1′-yl}propan-1-one] | 2.5 nM
COc1cc([C@@H](C)C(=O)N2CC[C@@]3(CCc4cc(-c5ccc(C(F)(F)F)cn5)c(C)nc4N3)C2)c(F)cn1 [Example 155, (2R)-2-(5-fluoro-2-methoxypyridin-4-yl)-1-{(2S)-7-methyl-6-[5-(trifluoromethyl)pyridin-2-yl]-3,4-dihydro-1H-spiro[1,8-naphthyridine-2,3′-pyrrolidin]-1′-yl}propan-1-one] | 27 nM
COc1cc([C@@H](C)C(=O)N2CC[C@@]3(CCc4cc(-c5nc(C(C)(C)C)cs5)c(C)nc4N3)C2)c(F)cn1 [Example 157, (2R)-1-[(2S)-6-(4-tert-butyl-1,3-thiazol-2-yl)-7-methyl-3,4-dihydro-1H-spiro[1,8-naphthyridine-2,3′-pyrrolidin]-1′-yl]-2-(5-fluoro-2-methoxypyridin-4-yl)propan-1-one] | 15 nM
COc1cc([C@@H](C)C(=O)N2CC[C@@]3(CCc4cc(-c5ccc(OC(F)F)nc5)c(C)nc4N3)C2)c(F)cn1 [Example 159, (2R)-1-{(2S)-6-[6-(difluoromethoxy)pyridin-3-yl]-7-methyl-3,4-dihydro-1H-spiro[1,8-naphthyridine-2,3′-pyrrolidin]-1′-yl}-2-(5-fluoro-2-methoxypyridin-4-yl)propan-1-one] | 18 nM
